Our source for the Water solubility values is patent US6509401B1, “Synergistic flame retardant combination of salts of 1-hydroxy-dihydrophosphole oxides and/or 1-hydroxyphospholane oxides and nitrogen compounds for use in polymers” (Clariant GmbH, priority 1997, dated 2003).

A short description of this series: Comparison of water solubilities at 20° C. It is filed as physicochemical. On the procedure: Comparison of Water Solubilities at 20° C.

Molecule `CCP(C)(=O)[O-].CCP(C)(=O)[O-].CCP(C)(=O)[O-].[Al+3]` [MEPAL, Aluminum salt of methylethylphosphinic acid] returned a Water solubility of 6300 µg/mL. In the case of `O=P1([O-])CCCC1.O=P1([O-])CCCC1.O=P1([O-])CCCC1.[Al+3]` [PHOLAL, Aluminum salt of 1-hydroxy-1H-phospholane 1-oxide], the Water solubility is 4300 µg/mL.
